Test results published in patent US9783532B2, “Molecules having certain pesticidal utilities, and intermediates, compositions, and processes related thereto” (Dow AgroSciences LLC, priority 2013, dated 2017).
Where two headings read alike, the source gives them in different places.

Assays:
[1] = tested on: Cabbage Looper (Trichoplusia ni) ("CL"); test: Bioassay on cabbage looper (CL), 128-well diet tray assay; format: in vivo; settings: for mortality at 50 µg/cm2: 168 h, 50 μg/cm^2 on artificial diet, second instar CL larvae, 25° C., five to seven days, average of eight wells, read-out: CL % Control (or Mortality) rating; for pest or weed control at 50 µg/cm2: activity rating class, read-out: CL (Biological Results, Insect species)
Procedure: (§1) Certain molecules disclosed in this document were tested against BAW and CEW using procedures described in the following examples. In the reporting of the results, the “BAW & CL Rating Table” was used (See Table Section). BIOASSAYS ON BAW
Bioassays on CL were conducted using a 128-well diet tray assay. one to five second instar CL larvae were placed in each well (3 mL) of the diet tray that had been previously filled with 1 mL of artificial diet to which 50 μg/cm^2 of the test compound (dissolved in 50 μL of 90:10 acetone-water mixture) had been applied (to each of eight wells) and then allowed to dry. Trays were covered with a clear self-adhesive cover and held at 25° C., 14:10 light-dark for five to seven days. Percent mortality was recorded for the larvae in each well; activity in the eight wells was then averaged. The results are indicated in the table entitled “Table ABC: Biological Results” (See Table Section).

[2] = tested on: Beet Armyworm (Spodoptera exigua) ("BAW"); test: Bioassay on beet armyworm (BAW), 128-well diet tray assay; format: in vivo; settings: for mortality at 50 µg/cm2: 168 h, 50 μg/cm^2 on artificial diet, second instar BAW larvae, 25° C., five to seven days, average of eight wells, read-out: BAW % Control (or Mortality) rating; for pest or weed control at 50 µg/cm2: activity rating class, read-out: BAW (Biological Results, Insect species)
Procedure: as §1
Bioassays on BAW were conducted using a 128-well diet tray assay. one to five second instar BAW larvae were placed in each well (3 mL) of the diet tray that had been previously filled with 1 mL of artificial diet to which 50 μg/cm^2 of the test compound (dissolved in 50 μL of 90:10 acetone-water mixture) had been applied (to each of eight wells) and then allowed to dry. Trays were covered with a clear self-adhesive cover and held at 25° C., 14:10 light-dark for five to seven days. Percent mortality was recorded for the larvae in each well; activity in the eight wells was then averaged. The results are indicated in the table entitled “Table ABC: Biological Results” (See Table Section).

SMILES	mortality at 50 µg/cm2 [1]	mortality at 50 µg/cm2 [2]	pest or weed control at 50 µg/cm2 ([1]; Table ABC (FB))	other results
CC(Cc1ccc(-c2ncn(-c3ccc(OC(F)(F)F)cc3)n2)cc1)NC(=O)NC(=S)Nc1ccccc1C(C)C (stereo not drawn) [F4, N-[2-(propan-2-yl)phenyl]-N′-[1-(4-{1-[4-(trifluoromethoxy)phenyl]-1H-1,2,4-triazol-3-yl}phenyl)propan-2-yl]dicarbonimidothioic diamide]	50 to 100%	50 to 100%	–	–
CC(C)c1ccccc1NC(=S)NC(=O)NCc1ccc(-c2ncn(-c3ccc(OC(F)(F)C(F)(F)F)cc3)n2)cc1 [F15, N-(4-{1-[4-(pentafluoroethoxy)phenyl]-1H-1,2,4-triazol-3-yl}benzyl)-N′-[2-(propan-2-yl)phenyl]dicarbonimidothioic diamide]	50 to 100%	50 to 100%	–	–
Cc1ccc(C(C)C)c(NC(=S)NC(=O)NCc2ccc(-c3ncn(-c4ccc(OC(F)(F)C(F)(F)F)cc4)n3)cc2)c1 [F16]	50 to 100%	50 to 100%	–	–
CC(C)c1ccccc1N1C(=O)CS/C1=N\C(=O)NCc1ccc(-c2ncn(-c3ccc(OC(F)(F)F)cc3)n2)cc1 [F17, (Z)-1-(3-(2-isopropylphenyl)-4-oxothiazolidin-2-ylidene)-3-(4-(1-(4-(trifluoromethoxy)phenyl)-1H-1,2,4-triazol-3-yl)benzyl)urea]	50 to 100%	50 to 100%	–	–
CC(C)c1ccccc1N1C(=O)CS/C1=N\C(=O)NCc1ccc(-c2ncn(-c3ccc(OC(F)(F)C(F)(F)F)cc3)n2)cc1 [F18, (Z)-1-(3-(2-isopropylphenyl)-4-oxothiazolidin-2-ylidene)-3-(4-(1-(4-(perfluoroethoxy)phenyl)-1H-1,2,4-triazol-3-yl)benzyl)urea]	50 to 100%	50 to 100%	–	–
Cc1ccc(C(C)C)c(N2C(=O)CS/C2=N\C(=O)NCc2ccc(-c3ncn(-c4ccc(OC(F)(F)C(F)(F)F)cc4)n3)cc2)c1 [F19, (Z)-1-(3-(2-isopropyl-5-methylphenyl)-4-oxothiazolidin-2-ylidene)-3-(4-(1-(4-(perfluoroethoxy)phenyl)-1H-1,2,4-triazol-3-yl)benzyl)urea]	50 to 100%	50 to 100%	–	–
COc1ccc(NC(=S)NC(=O)NC2CC2c2ccc(-c3ncn(-c4ccc(OC(F)(F)F)cc4)n3)cc2)c(C)c1 (stereo not drawn) [F26]	50 to 100%	50 to 100%	–	–
Cc1ccc(C(C)C)c(NC(=S)NC(=O)NCc2ccc(-c3ncn(-c4ccc(OC(F)(F)F)cc4)n3)cc2)c1 [F35]	–	50 to 100%	–	–
Cc1ccc(C(C)C)c(NC(=S)NC(=O)NCCc2ccc(-c3ncn(-c4ccc(OC(F)(F)F)cc4)n3)cc2C)c1 [FB1, 1-[(2-isopropyl-5-methyl-phenyl)carbamothioyl]-3-[2-[2-methyl-4-[1-[4-(trifluoromethoxy)phenyl]-1H-1,2,4-triazol-3-yl]phenyl]ethyl]urea]	–	–	50 to 100%	pest or weed control at 50 µg/cm2 ([2]; Table ABC (FB)): 50 to 100%
COc1ccc(C(C)C)c(NC(=S)NC(=O)NCCc2ccc(-c3ncn(-c4ccc(OC(F)(F)F)cc4)n3)cc2C)c1 [FB2]	–	–	50 to 100%	pest or weed control at 50 µg/cm2 ([2]; Table ABC (FB)): 50 to 100%
Cc1ccc(C(C)C)c(N2C(=O)CS/C2=N\C(=O)NCCc2ccc(-c3ncn(-c4ccc(OC(F)(F)F)cc4)n3)cc2C)c1 [FB3, (Z)-1-(3-(2-isopropyl-5-methylphenyl)-4-oxothiazolidin-2-ylidene)-3-(2-methyl-4-(1-(4-(trifluoromethoxy)phenyl)-1H-1,2,4-triazol-3-yl)phenethyl)urea]	–	–	50 to 100%	pest or weed control at 50 µg/cm2 ([2]; Table ABC (FB)): 50 to 100%
COc1ccc(C(C)C)c(N2C(=O)CS/C2=N\C(=O)NCCc2ccc(-c3ncn(-c4ccc(OC(F)(F)F)cc4)n3)cc2C)c1 [FB4, (Z)-1-(3-(2-isopropyl-5-methoxyphenyl)-4-oxothiazolidin-2-ylidene)-3-(2-methyl-4-(1-(4-(trifluoromethoxy)phenyl)-1H-1,2,4-triazol-3-yl)phenethyl)urea]	–	–	50 to 100%	pest or weed control at 50 µg/cm2 ([2]; Table ABC (FB)): 50 to 100%
CCc1ccccc1NC(=S)NC(=O)NCCc1ccc(-c2ncn(-c3ccc(OC(F)(F)F)cc3)n2)cc1C [FB5, 1-[(2-ethylphenyl)carbamothioyl]-3-[2-[2-methyl-4-[1-[4-(trifluoromethoxy)phenyl]-1H-1,2,4-triazol-3-yl]phenyl]ethyl]urea]	–	–	50 to 100%	pest or weed control at 50 µg/cm2 ([2]; Table ABC (FB)): 50 to 100%
CCc1ccccc1N1C(=O)CS/C1=N\C(=O)NCCc1ccc(-c2ncn(-c3ccc(OC(F)(F)F)cc3)n2)cc1C [FB6, (Z)-1-(3-(2-ethylphenyl)-4-oxothiazolidin-2-ylidene)-3-(2-methyl-4-(1-(4-(trifluoromethoxy)phenyl)-1H-1,2,4-triazol-3-yl)phenethyl)urea]	–	–	50 to 100%	pest or weed control at 50 µg/cm2 ([2]; Table ABC (FB)): 50 to 100%
Cc1cc(-c2ncn(-c3ccc(OC(F)(F)F)cc3)n2)ccc1CCNC(=O)/N=C1\SCC(=O)N1c1cc(Cl)ccc1C(C)C [FB7, (Z)-1-(3-(5-chloro-2-isopropylphenyl)-4-oxothiazolidin-2-ylidene)-3-(2-methyl-4-(1-(4-(trifluoromethoxy)phenyl)-1H-1,2,4-triazol-3-yl)phenethyl)urea]	–	–	50 to 100%	pest or weed control at 50 µg/cm2 ([2]; Table ABC (FB)): 50 to 100%
Cc1ccc(NC(=S)NC(=O)NCCCCc2ccc(-c3ncn(-c4ccc(OC(F)(F)F)cc4)n3)cc2)c(C)c1 [FB16, 1-[(2,4-dimethylphenyl)carbamothioyl]-3-[4-[4-[1-[4-(trifluoromethoxy)phenyl]-1H-1,2,4-triazol-3-yl]phenyl]butyl]urea]	–	–	50 to 100%	–
Cc1ccc(-n2c(C)cs/c2=N\C(=O)NCc2ccc(-c3ncn(-c4ccc(OC(F)(F)F)cc4)n3)cc2)c(C(C)C)c1 [P20, (Z)-1-(3-(2-isopropyl-4-methylphenyl)-4-methylthiazol-2(3H)-ylidene)-3-(4-(1-(4-(trifluoromethoxy)phenyl)-1H-1,2,4-triazol-3-yl)benzyl)urea]	50 to 100%	–	–	–
Cc1ccc(C(C)C)c(N2C(=O)CS/C2=N\C(=O)NCCc2cccc(-c3ncn(-c4ccc(OC(F)(F)F)cc4)n3)c2)c1 [P81]	50 to 100%	–	–	–
COc1ccc(NC(=S)NC(=O)NCCc2cccc(-c3ncn(-c4ccc(OC(F)(F)F)cc4)n3)c2)c(C)c1 [PC87, 1-[(4-methoxy-2-methyl-phenyl)carbamothioyl]-3-[2-[3-[1-[4-(trifluoromethoxy)phenyl]-1H-1,2,4-triazol-3-yl]phenyl]ethyl]urea]	–	–	–	pest or weed control at 50 µg/cm2 ([1]; Table ABC (PC)): 50 to 100%
CCCc1ccc(C)cc1NC(=S)NC(=O)NCCCc1ccc(-c2ncn(-c3ccc(OC(F)(F)F)cc3)n2)cc1 [PC99, 1-[(5-methyl-2-propyl-phenyl)carbamothioyl]-3-[3-[4-[1-[4-(trifluoromethoxy)phenyl]-1H-1,2,4-triazol-3-yl]phenyl]propyl]urea]	–	–	–	pest or weed control at 50 µg/cm2 ([2]; Table ABC (PC)): 50 to 100%
Cc1ccc(NC(=S)NC(=O)NCCCc2ccc(-c3ncn(-c4ccc(OC(F)(F)F)cc4)n3)cc2)c(C(C)C)c1 [PC102, 1-[(2-isopropyl-4-methyl-phenyl)carbamothioyl]-3-[3-[4-[1-[4-(trifluoromethoxy)phenyl]-1H-1,2,4-triazol-3-yl]phenyl]propyl]urea]	–	–	–	pest or weed control at 50 µg/cm2 ([2]; Table ABC (PC)): 50 to 100%
CC(C)c1cc(F)ccc1NC(=S)NC(=O)NCCCc1ccc(-c2ncn(-c3ccc(OC(F)(F)F)cc3)n2)cc1 [PC103, 1-[(4-fluoro-2-isopropyl-phenyl)carbamothioyl]-3-[3-[4-[1-[4-(trifluoromethoxy)phenyl]-1H-1,2,4-triazol-3-yl]phenyl]propyl]urea]	–	–	–	pest or weed control at 50 µg/cm2 ([2]; Table ABC (PC)): 0 to 50%
Cc1ccc(NC(=S)NC(=O)NCCCCc2cccc(-c3ncn(-c4ccc(OC(F)(F)F)cc4)n3)c2)c(C(C)C)c1 [PC180, 1-[(2-isopropyl-4-methyl-phenyl)carbamothioyl]-3-[4-[3-[1-[4-(trifluoromethoxy)phenyl]-1H-1,2,4-triazol-3-yl]phenyl]butyl]urea]	–	–	–	pest or weed control at 50 µg/cm2 ([2]; Table ABC (PC)): 0 to 50%
CC(C)c1cc(F)ccc1NC(=S)NC(=O)NCCCCc1cccc(-c2ncn(-c3ccc(OC(F)(F)F)cc3)n2)c1 [PC181, 1-[(4-fluoro-2-isopropyl-phenyl)carbamothioyl]-3-[4-[3-[1-[4-(trifluoromethoxy)phenyl]-1H-1,2,4-triazol-3-yl]phenyl]butyl]urea]	–	–	–	pest or weed control at 50 µg/cm2 ([2]; Table ABC (PC)): 0 to 50%
COc1ccc(C(C)C)c(NC(=S)NC(=O)NCCCCc2cccc(-c3ncn(-c4ccc(OC(F)(F)F)cc4)n3)c2)c1 [PC182, 1-[(2-isopropyl-5-methoxy-phenyl)carbamothioyl]-3-[4-[3-[1-[4-(trifluoromethoxy)phenyl]-1H-1,2,4-triazol-3-yl]phenyl]butyl]urea]	–	–	–	pest or weed control at 50 µg/cm2 ([1]; Table ABC (PC)): 50 to 100%
